IC50 and EC50 data for 25 molecules are collected here from patent US10669272B2, “Substituted naphthyridinone compounds useful as T cell activators” (BRISTOL-MYERS SQUIBB COMPANY, priority 2018, dated 2020).

Where two headings read alike, the source gives them in different places.

Broadly, the IC50 is the midpoint of a concentration-inhibition curve. By EC50 is commonly meant the concentration needed to bring the measured effect to its halfway point.

Experiment [1] addresses T1, human DGKα (Homo sapiens, UniProt P23743).
T1 construct: TVMV protease cleavage site (C); Hexa-His (C); made in house; host or cells: Sf9 insect cells (baculovirus, Bac-to-Bac)
Nature of the experiment: DGKα LIPGLO assay (extruded liposome substrate), in vitro DGK inhibition. Conditions: read-out: DGKa LIPGLO IC50. The format is biochemical.

The target in experiment [2] is T2, human DGKζ (Homo sapiens, UniProt Q13574).
T2 construct: TVMV protease cleavage site (C); Hexa-His (C); made in house; host or cells: Sf9 insect cells (baculovirus, Bac-to-Bac)
T2 sequence (Q13574 with tags, fused parts or gaps isoform Q13574-4): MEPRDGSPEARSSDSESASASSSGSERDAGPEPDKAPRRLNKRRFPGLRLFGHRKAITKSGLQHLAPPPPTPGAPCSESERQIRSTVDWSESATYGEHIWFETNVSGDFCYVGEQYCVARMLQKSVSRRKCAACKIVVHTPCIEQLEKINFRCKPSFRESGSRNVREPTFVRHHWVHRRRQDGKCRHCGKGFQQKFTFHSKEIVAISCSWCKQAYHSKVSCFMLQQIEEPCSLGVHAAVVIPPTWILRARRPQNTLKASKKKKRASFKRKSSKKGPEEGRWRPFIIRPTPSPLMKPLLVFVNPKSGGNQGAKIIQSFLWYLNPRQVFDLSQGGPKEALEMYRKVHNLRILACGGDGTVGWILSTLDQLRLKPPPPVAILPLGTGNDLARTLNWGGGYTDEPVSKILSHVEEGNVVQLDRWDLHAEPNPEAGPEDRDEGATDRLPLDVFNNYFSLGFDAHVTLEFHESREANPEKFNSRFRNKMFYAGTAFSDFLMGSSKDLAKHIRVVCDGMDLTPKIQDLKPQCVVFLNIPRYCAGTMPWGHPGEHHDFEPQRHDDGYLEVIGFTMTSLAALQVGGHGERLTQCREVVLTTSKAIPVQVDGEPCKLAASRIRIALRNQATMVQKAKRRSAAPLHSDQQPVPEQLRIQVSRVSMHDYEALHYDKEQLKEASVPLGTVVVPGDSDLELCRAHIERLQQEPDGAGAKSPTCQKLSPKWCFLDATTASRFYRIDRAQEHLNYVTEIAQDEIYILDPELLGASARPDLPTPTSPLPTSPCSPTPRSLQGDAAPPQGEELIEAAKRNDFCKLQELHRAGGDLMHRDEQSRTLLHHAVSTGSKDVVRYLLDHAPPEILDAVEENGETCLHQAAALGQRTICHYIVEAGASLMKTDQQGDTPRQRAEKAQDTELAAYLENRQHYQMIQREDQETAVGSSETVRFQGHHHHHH
Nature of the experiment: DGKζ LIPGLO assay (extruded liposome substrate), in vitro DGK inhibition. The format is biochemical. Particulars: read-out: DGKz LIPGLO IC50.

The test system of experiment [3] is Human venous whole blood. Nature of the experiment: Human whole blood IFN-γ assay.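 Note: blood from healthy donors exposed to compound for 1 h before stimulation with anti-CD3 and anti-CD28 at 1 µg/mL each, IFN-γ quantified in supernatant by AlphaLISA.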 The format is cell-based. Conditions: human whole blood, read-out: INFg Whole Blood Normalized Agonist EC50.
Method: Human Whole Blood IFN-γ Assay
Human venous whole blood (22.5 μL per well), obtained from healthy donors, was pre-treated with compounds for one hour at 37° C. in a humidified 95% air/5% CO2 incubator. The blood was stimulated with 2.5 μL anti-human CD3 and anti-CD28 mAb at a final concentration of 1 μg/mL each for 24 hours at 37° C. IFN-γ in the supernatants was measured using AlphLISA kit (Cat # AL217).
Where [4] appears, read: Homo sapiens, 24 h, normalized to 3 μM reference compound with anti-CD3 plus anti-CD28 as 100% activation.
[5] abbreviates: Homo sapiens, 24 h, anti-CD3 plus anti-CD28, 24 hours, 3 μM reference compound = 100% activation.
Setting [6] is: normalized to 3 μM reference compound with anti-CD3 plus anti-CD28 as 100% activation.
[7] abbreviates: anti-CD3 plus anti-CD28, 24 hours, 3 μM reference compound = 100% activation.

T1 sequence (P23743 with tags, fused parts or gaps): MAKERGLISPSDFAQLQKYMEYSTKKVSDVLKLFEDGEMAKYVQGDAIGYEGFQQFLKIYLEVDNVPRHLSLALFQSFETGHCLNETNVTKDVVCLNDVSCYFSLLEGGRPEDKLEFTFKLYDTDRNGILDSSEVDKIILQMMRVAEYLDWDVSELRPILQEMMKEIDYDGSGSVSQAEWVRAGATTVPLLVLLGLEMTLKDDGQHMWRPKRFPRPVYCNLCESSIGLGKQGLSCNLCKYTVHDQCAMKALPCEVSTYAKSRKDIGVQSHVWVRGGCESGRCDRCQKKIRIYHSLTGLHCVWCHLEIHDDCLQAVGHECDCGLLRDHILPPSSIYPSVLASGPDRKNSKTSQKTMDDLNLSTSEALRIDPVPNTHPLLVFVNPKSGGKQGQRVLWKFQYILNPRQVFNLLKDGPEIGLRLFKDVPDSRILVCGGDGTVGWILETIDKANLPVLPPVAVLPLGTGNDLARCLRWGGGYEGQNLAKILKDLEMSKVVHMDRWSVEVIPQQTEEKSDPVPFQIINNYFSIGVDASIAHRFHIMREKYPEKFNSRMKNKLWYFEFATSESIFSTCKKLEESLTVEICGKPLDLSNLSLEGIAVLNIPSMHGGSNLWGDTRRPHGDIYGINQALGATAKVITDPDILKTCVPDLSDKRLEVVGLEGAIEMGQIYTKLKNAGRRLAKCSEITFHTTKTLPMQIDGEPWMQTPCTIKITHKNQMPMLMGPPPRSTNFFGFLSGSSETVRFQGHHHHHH

Consider `CC(c1nc(C2CC2)no1)N1C[C@H](C)N(c2c(C#N)c(=O)n(C)c3ccc(C#N)nc23)C[C@H]1C` (single isomer, unassigned) [Example 1306], for which the results for the IC50 in experiment [1] (liposome (LIPGLO) assay) and in experiment [2] (liposome (LIPGLO) assay) were 9.4 µM and 1.1 µM, respectively. Also, the half-maximal effective concentration (EC50) in experiment [3] (setting [4]) was determined as 2.9 µM.

Take `CC[C@@H]1CN(c2cc(=O)n(C)c3ccc(C#N)nc23)[C@@H](C)CN1C(c1ccc(C)cc1)c1ccc(C)cc1` [Example 1098]: the figures for the half-maximal inhibitory concentration (IC50) in experiment [1] (liposome (LIPGLO) assay) and in experiment [2] (liposome (LIPGLO) assay) were 0.57 µM and 0.3 µM, respectively. For the same molecule, the EC50 in experiment [3] (setting [4]) was 0.15 µM.

For `C[C@@H]1CN(c2cc(=O)n(C)c3ccc(C#N)nc23)[C@@H](C)CN1C(c1c(F)cc(O)cc1F)C(F)(F)F` (single isomer, unassigned) [Example 627], the 50% inhibitory concentration (IC50) in experiment [1] (liposome (LIPGLO) assay) was 5.4 µM; in experiment [2] (liposome (LIPGLO) assay) it was 5.9 µM. Besides, the concentration giving a half-maximal response (EC50) in experiment [3] (setting [4]) was 5.1 µM.

For the molecule `CCc1ccc(C(c2ccc(F)cc2)N2C[C@H](C)N(c3c(C#N)c(=O)n(C)c4ccc(C#N)nc34)C[C@H]2C)cc1` (single isomer, unassigned) [Example 811], the half-inhibitory concentration (IC50) amounted to 9.3 µM in experiment [1] (DGKα liposome (LIPGLO) assay) and 2.6 µM in experiment [2] (DGKζ liposome (LIPGLO) assay). Besides, the concentration giving a half-maximal response (EC50) in experiment [3] (setting [5]) stood at 2.1 µM.

For `C[C@@H]1CN(c2cc(=O)n(C)c3ccc(C#N)nc23)[C@@H](C)CN1C(c1ccc(F)cc1)c1ccc(N2CCOCC2)cc1` (single isomer, unassigned) [Example 663], the IC50 is greater than 250 µM in experiment [1] (liposome (LIPGLO) assay) and 24 µM in experiment [2] (liposome (LIPGLO) assay). In experiment [3] (setting [6]), the EC50 was 20 µM.

`CC[C@@H]1CN(c2cc(=O)n(C)c3ccc(C#N)nc23)[C@@H](C)CN1C(C)c1ccc(OC)cc1` (single isomer, unassigned) [Example 483]: the IC50 in experiment [1] (liposome (LIPGLO) assay) is 3.3 µM; in experiment [2] (liposome (LIPGLO) assay), 3.9 µM. Besides, in experiment [3] (setting [6]), the 50% effective concentration (EC50) was found to be 4.3 µM.

Consider `C[C@@H]1CN(c2cc(=O)n(C)c3ccc(C#N)nc23)[C@@H](C)CN1C(c1ccc(F)cc1)c1cnn(C2CC2)c1` (single isomer, unassigned) [Example 726], for which the 50% inhibitory concentration (IC50) in experiment [1] (DGKα liposome (LIPGLO) assay) was found to be 1.9 µM; in experiment [2] (DGKζ liposome (LIPGLO) assay) it was 0.059 µM. Moreover, the EC50 in experiment [3] (setting [7]) came to 0.8 µM.

Regarding `CC[C@H]1CN(C(C)c2ccc(C3CC3)cc2)[C@H](CC)CN1c1cc(=O)n(C)c2ccc(C#N)nc12` (single isomer, unassigned) [Example 1356], the half-maximal inhibitory concentration (IC50) was 1.9 µM in experiment [1] (liposome (LIPGLO) assay) and 3.4 µM in experiment [2] (liposome (LIPGLO) assay). The EC50 in experiment [3] (setting [6]) worked out at 1.3 µM.

`CCC(c1ccc(OCCC2CC2)cc1)N1C[C@H](C)N(c2cc(=O)n(C)c3ccc(C#N)nc23)C[C@H]1C` (single isomer, unassigned) [Example 1446]: the half-maximal inhibitory concentration (IC50) turned out to be 0.26 µM in experiment [1] (liposome (LIPGLO) assay) and 0.23 µM in experiment [2] (liposome (LIPGLO) assay). Besides, in experiment [3] (setting [6]), the EC50 is 0.23 µM.

Regarding `C[C@@H]1CN(c2cc(=O)n(C)c3ccc(C#N)nc23)[C@@H](C)CN1C(c1cccc(F)c1)c1cccc2c1OCCCO2` (single isomer, unassigned) [Example 445], the 50% inhibitory concentration (IC50) in experiment [1] (liposome (LIPGLO) assay) turned out to be 40 µM; in experiment [2] (liposome (LIPGLO) assay) it was 0.42 µM. Besides, the EC50 in experiment [3] (setting [4]) came out at 2.6 µM.

For `C[C@@H]1CN(c2c(C#N)c(=O)n(C)c3ccc(C#N)nc23)CCN1C(c1ccc(F)cc1)c1ncccc1F` (single isomer, unassigned) [Example 891], the IC50 in experiment [1] (DGKα liposome (LIPGLO) assay) is 3.1 µM; in experiment [2] (DGKζ liposome (LIPGLO) assay), 3 µM. The EC50 in experiment [3] (setting [5]) amounted to 2.8 µM.

In the case of `C[C@@H]1CN(c2cc(=O)n(C)c3ccc(C#N)nc23)[C@@H](C)CN1Cc1ccc(C2(C#N)CC2)cc1` [Example 567], the half-maximal inhibitory concentration (IC50) in experiment [1] (liposome (LIPGLO) assay) worked out at 2.8 µM; in experiment [2] (liposome (LIPGLO) assay), 18 µM. Also, in experiment [3] (setting [4]), the half-maximal effective concentration (EC50) worked out at 20 µM.

On to `CC(c1c(F)cccc1F)N1CCN(c2c(C#N)c(=O)n(C)c3ccc(C#N)nc23)C[C@H]1C` (single isomer, unassigned) [Example 950], for which the values for the IC50 in experiment [1] (DGKα liposome (LIPGLO) assay) and in experiment [2] (DGKζ liposome (LIPGLO) assay) were 0.21 µM and 0.37 µM, respectively. For the same molecule, the 50% effective concentration (EC50) in experiment [3] (setting [7]) turned out to be 3.8 µM.

Take `CC(c1ccc2c(c1)OCCO2)N1C[C@H](C)N(c2cc(=O)n(C)c3ccc(C#N)nc23)C[C@H]1C` (single isomer, unassigned) [Example 1258]: the half-maximal inhibitory concentration (IC50) in experiment [1] (liposome (LIPGLO) assay) came out at 2.2 µM; in experiment [2] (liposome (LIPGLO) assay), 0.015 µM. For the same molecule, in experiment [3] (setting [4]), the EC50 is 2.6 µM.

`CC[C@@H]1CN(c2cc(=O)n(C)c3ccc(C#N)nc23)[C@@H](C)CN1C(c1ccc(F)cc1)c1ccc(C(F)(F)F)cn1` (single isomer, unassigned) [Example 1106]: the results for the concentration for half-maximal inhibition (IC50) in experiment [1] (liposome (LIPGLO) assay) and in experiment [2] (liposome (LIPGLO) assay) were 0.27 µM and 0.12 µM, respectively. Moreover, the EC50 in experiment [3] (setting [6]) is 0.52 µM.

As to `C[C@@H]1CN(c2cc(=O)n(C)c3ccc(C#N)nc23)[C@@H](C)CN1C(c1ccc(F)cc1)c1ccns1` (stereo partly drawn) [Example 719], the IC50 in experiment [1] (liposome (LIPGLO) assay) came to 0.4 µM; in experiment [2] (liposome (LIPGLO) assay) it was 0.38 µM. Moreover, the 50% effective concentration (EC50) in experiment [3] (setting [6]) was determined as 0.5 µM.

Turning to `CSCC(c1ccc(F)cc1)N1C[C@H](C)N(c2cc(=O)n(C)c3ccc(C#N)nc23)C[C@H]1C` (single isomer, unassigned) [Example 1318], the half-maximal inhibitory concentration (IC50) in experiment [1] (liposome (LIPGLO) assay) is 0.0062 µM; in experiment [2] (liposome (LIPGLO) assay), 0.034 µM. In addition, in experiment [3] (setting [4]), the concentration giving a half-maximal response (EC50) was 0.088 µM.

On to `C[C@@H]1CN(c2c(F)c(=O)n(C)c3ccc(C#N)nc23)[C@@H](C)CN1C(c1ccc(F)cc1)c1ccc(C(F)(F)F)cc1` (stereo partly drawn) [Example 325, 7-fluoro-8-((2S,5R)-4-((4-fluorophenyl)(4-(trifluoromethyl)phenyl)methyl)-2,5-dimethylpiperazin-1-yl)-5-methyl-6-oxo-5,6-dihydro-1,5-naphthyridine-2-carbonitrile], for which the IC50 in experiment [1] (liposome (LIPGLO) assay) came to 0.68 µM; in experiment [2] (liposome (LIPGLO) assay) it was 2.3 µM. Besides, the EC50 in experiment [3] (setting [6]) is 3.2 µM.

Turning to `CC[C@@H]1CN(c2cc(=O)n(C)c3ccc(C#N)nc23)[C@@H](C)CN1C(C)c1ccc(OC(C)C)cc1` (single isomer, unassigned) [Example 1348], the figures for the IC50 in experiment [1] (liposome (LIPGLO) assay) and in experiment [2] (liposome (LIPGLO) assay) were 0.11 µM and 0.015 µM, respectively. In experiment [3] (setting [6]), the EC50 was 0.029 µM.

In the case of `CC(c1ccc(F)cc1)N1C[C@@H](C)N(c2cc(=O)n(C)c3ccc(C#N)nc23)C[C@@H]1CO` (single isomer, unassigned) [Example 1178], the half-maximal inhibitory concentration (IC50) in experiment [1] (liposome (LIPGLO) assay) is 43 µM; in experiment [2] (liposome (LIPGLO) assay), 0.72 µM. In addition, the EC50 in experiment [3] (setting [6]) came to 3.1 µM.

For the molecule `C[C@@H]1CN(c2cc(=O)n(C)c3ccc(C#N)nc23)[C@@H](C)CN1Cc1ccc(OC(F)(F)F)cc1C#N` [Example 581], the IC50 in experiment [1] (liposome (LIPGLO) assay) came out at 1.3 µM; in experiment [2] (liposome (LIPGLO) assay) it was 6.7 µM. Moreover, the concentration giving a half-maximal response (EC50) in experiment [3] (setting [4]) stood at 2.7 µM.

With `CC[C@@H]1CN(c2cc(=O)n(C)c3ccc(C#N)nc23)[C@@H](C)CN1C(C)c1ccc(OC)cc1` (single isomer, unassigned) [Example 1351], the figures for the IC50 in experiment [1] (liposome (LIPGLO) assay) and in experiment [2] (liposome (LIPGLO) assay) were 1.1 µM and 0.78 µM, respectively. In addition, in experiment [3] (setting [6]), the EC50 was 0.74 µM.

For the molecule `COCCOc1cc(C(C)N2C[C@H](C)N(c3cc(=O)n(C)c4ccc(C#N)nc34)C[C@H]2C)ccc1C#N` (single isomer, unassigned) [Example 1321], the IC50 was determined as 7.5 µM in experiment [1] (liposome (LIPGLO) assay) and 0.31 µM in experiment [2] (liposome (LIPGLO) assay). The EC50 in experiment [3] (setting [4]) was 3 µM.

Consider `CC[C@H]1CN(C(c2ccc(F)cc2)c2ccc(C#N)cc2)[C@H](C)CN1c1cc(=O)n(C)c2ccc(C#N)nc12` (stereo partly drawn) [Example 1124], for which the 50% inhibitory concentration (IC50) in experiment [1] (liposome (LIPGLO) assay) worked out at 0.88 µM; in experiment [2] (liposome (LIPGLO) assay), 3.1 µM. For the same molecule, the half-maximal effective concentration (EC50) in experiment [3] (setting [6]) was 1.4 µM.

On to `CC(c1ccc(OC(F)(F)F)cc1F)N1C[C@H](C)N(c2cc(=O)n(C)c3ccc(C#N)nc23)C[C@H]1C` (stereo partly drawn) [Example 437, 8-((2S,5R)-4-(1-(2-fluoro-4-(trifluoromethoxy)phenyl)ethyl)-2,5-dimethylpiperazin-1-yl)-5-methyl-6-oxo-5,6-dihydro-1,5-naphthyridine-2-carbonitrile], for which the IC50 in experiment [1] (liposome (LIPGLO) assay) was 0.4 µM; in experiment [2] (liposome (LIPGLO) assay) it was 0.67 µM. Also, the EC50 in experiment [3] (setting [4]) amounted to 0.54 µM.
